The assay is described as follows: Inhibition of rat recombinant ST3Gal-1 using CMP-Neu5Ac as substrate after 20 mins by fluorescence based reverse phase HPLC analysis.

The IC50 is the concentration that inhibits the measured activity by half. Turning to `CC(=O)N[C@H]1[C@H]([C@H](O)[C@H](O)CO)O[C@](CCP(=O)(O)OC[C@H]2O[C@@H](n3ccc(N)nc3=O)[C@H](O)[C@@H]2O)(C(N)=O)C[C@@H]1O`, the IC50 worked out at 3.3 mM.
Take `CC(=O)N[C@H]1[C@H]([C@H](O)[C@H](O)CO)O[C@@](CO)(CCP(=O)(O)OC[C@H]2O[C@@H](n3ccc(N)nc3=O)[C@H](O)[C@@H]2O)C[C@@H]1O`: the IC50 worked out at 4.2 mM.
The same measure for `CC(=O)N[C@H]1[C@H]([C@H](O)[C@H](O)CO)O[C@](CCP(=O)(O)OC[C@H]2O[C@@H](n3ccc(N)nc3=O)[C@H](O)[C@@H]2O)(C(=O)O)C[C@@H]1O`: 0.047 mM.

The values above are taken from ChEMBL document CHEMBL4428105, “Conformational and electrostatic analysis of SN1 donor analogue glycomimetic inhibitors of ST3Gal-I mammalian sialyltransferase” (Bioorg Med Chem, 2016).
